# Source: patent US20090227470A1, “SELECTION OF BIOCATALYSTS FOR CHEMICAL SYNTHESIS” (priority 2005, published 2009)
# “And” between values parts separate entries of the source, which are not always exact repeats. Equal values may be shown once. Read-outs that look alike come from different tables or passages of the source.
# Legend:
# E. coli cell membranes = assay: Passive diffusion across the cell envelope; type: in vitro ADME; conditions: for diffusion rate across E. coli cell membranes: estimated from studies of toluene oxidation by E. coli hosts containing xylMA
# Excerpt: This can be considered to be due to differences in the transport of benzaldehyde and benzoate through the E. coli cell envelope. Such transport is believed to involve only passive diffusion^21,22. […].
# Thus, substrate influx and product efflux, though different, are quite rapid. […]
# [1] = tested on: DH10B-pVSF2-tet^r (NahR mutant, Psal fused to tetA); assay: microbe, parasite or virus in culture; conditions: Escherichia coli, read-out: concentration required for half maximal colony size (colony diameter 50% of maximum), product added extracellularly, selective plates; estimated from inverse plots of FIG. 3
# Procedure: (§1) Each plate assay was conducted in triplicate and growth was determined by measuring the colony diameter of 10 solitary colonies for each plate.
# (§2) We compared the sensitivity of the selector host for substrates and products by plotting the data of FIGS. 3 and 4 as inverse plots of 1/[colony diameter] vs 1/[compound] and estimating the concentration required for half maximal colony size.
# [2] = tested on: DH10B-pVSF2-tet^r/pCom10-XylC (benzaldehyde dehydrogenase XylC from Pseudomonas putida); assay: Plate-based assay for tetracycline resistance, biocat-selector strain with XylC substrates; type: cell-based, Escherichia coli; conditions: for EC50: Escherichia coli, read-out: substrate concentration required for half-maximal colony diameter, cells containing XylC, selective plates, estimated from inverse plots of FIG. 4
# Excerpt: Plasmid pCom10-XylC was re-introduced into DH10B-pVSF2-tet^r to produce the desired biocat-selector strain DH10B-pVSF2-tet^r/pCom10-XylC. This strain grew on tetracycline containing selective plates only after addition of benzaldehyde or 2-hydroxybenzaldehyde.
# [3] = tested on: DH10B-pVSF2-lacZ/pCom10-XylC (benzaldehyde dehydrogenase XylC from Pseudomonas putida); assay: Plate-based assay for β-galactosidase activity, biocat-reporter strain with XylC substrates; conditions: plates with chloramphenicol, kanamycin, X-Gal; decane vapor to induce XylC
# Procedure: Cells were plated and grown as above, under decane vapor, followed by incubation at 4° C. and testing for blue colony color as above.
# Strain DH10B-pVSF2-lacZ was transformed with pCom10-XylC, streaked on plates containing chloramphenicol, kanamycin, X-Gal and varying concentrations of benzaldehyde or 2-hydroxybenzaldehyde, and grown exposed to decane vapor to induce XylC. Strain DH10B-pVSF2-lacZ, carrying an empty pCom10 vector served as control.
# [4] = tested on: DH10B-pVSF2-lacZ (NahR mutant, salicylate promoter Psal fused to lacZa); conditions: plates with chloramphenicol and X-Gal, 36 h at 30° C.
# Procedure: E. coli DH10B cells harbouring reporter plasmid pVSF2-lacZ were streaked on the plates from a liquid culture that had been grown at 30° C. to an OD600 of 0.1. Cells were grown for 36 h at 30° C. followed by incubation at 4° C. for 24 h after which blue colony color formation was evaluated visually.
# [5] = tested on: DH10B-pVSF2-tet^r (NahR mutant, Psal fused to tetA)
# Procedure: as §1, §2
# NahR variant = NahR variant (Pseudomonas putida, UniProt P10183, N169D); conditions: reported by de Lorenzo and coworkers (Cebolla et al., 1997); cited from earlier work
# Sequence of NahR variant (P10183 whole entry N169D): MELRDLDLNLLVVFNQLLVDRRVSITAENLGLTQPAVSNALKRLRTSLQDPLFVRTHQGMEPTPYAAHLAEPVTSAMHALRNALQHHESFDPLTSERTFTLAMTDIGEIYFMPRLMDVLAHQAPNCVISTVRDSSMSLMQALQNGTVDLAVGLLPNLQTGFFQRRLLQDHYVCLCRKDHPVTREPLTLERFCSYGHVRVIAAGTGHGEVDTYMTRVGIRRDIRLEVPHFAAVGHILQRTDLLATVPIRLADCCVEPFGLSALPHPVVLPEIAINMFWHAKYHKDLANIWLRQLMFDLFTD
smiles,measurement,setting,value
O=C(O)c1ccccc1 [benzoate],time for intracellular and extracellular concentrations to equilibrate,E. coli cell membranes,one minute
same,diffusion rate across E. coli cell membranes,E. coli cell membranes,> 10 μmol/min/g cell dry mass
same,EC50,[1],~400 µM
O=Cc1ccccc1 [benzaldehyde],EC50,[2],~6 µM
same,concentration giving homogeneous growth,"[2]; host with higher tetracycline tolerance, selective conditions",~100 µM
same,time for intracellular and extracellular concentrations to equilibrate,E. coli cell membranes,a few seconds
same,diffusion rate across E. coli cell membranes,E. coli cell membranes,exceed 180 μmol/min/g cell dry mass
same,substrate concentration above which blue colonies were formed,[3],above 50 μM
O=C(O)c1ccccc1O [2-hydroxybenzoate],concentration above which blue colonies were detected,[4],higher than 10 μM
same,saturating concentration for blue colony formation,[4],~100 µM
same,fold more effective than the parent compound in triggering tetracycline resistance,[5]; 2-hydroxy substituted vs unsubstituted compound,15-20
same,EC50,"[5]; read-out: concentration required for half maximal colony size (colony diameter 50% of maximum), product added extracellularly, selective plates, estimated from inverse plots of FIG. 3",~20 µM and 20 µM
same,minimum concentration at which colonies were formed,[5]; selective media with tetracycline,10 µM
same,concentration at which smaller and also fewer colonies were observed,[5]; selective plates with tetracycline,10 µM
same,"affinity of the NahR chemosensor, times greater than for benzoate",NahR variant,10
O=Cc1ccccc1O [2-hydroxybenzaldehyde],EC50,[2],~0.3 µM
same,substrate concentration above which blue colonies were formed,[3],above 25 μM
